Laboratory results taken from patent publication US10961507B2, “Method for producing hepatic stem/precursor cells from mature hepatic cells using low-molecular-weight compound” (Cynity Co., Ltd., priority 2016, dated 2021).

System: CYP1A in Hep-i(+) cells
Experiment: Determination of CYP1A activity and CYP1A1/CYP1A2 gene expression after 3-MC treatment
Type: cell-based, rat
Conditions: 5 μM for 4 days
Method: In order to induce CYP1A activity, cells on Day 8 of hepatocyte induction were treated with 5 μM 3-methylcholanthrene (3-MC) (Sigma) for 4 days (the medium was exchanged on the second day). The control cells were treated only with DMSO as a solvent. Four days later, P450-G1o CYP1A1 Assay (Luciferin-CEE) was used to determine CYP1A activity. According to the manufacturer's instruction, this kit can detect CYP1A2 activity more efficiently than CYP1A1 activity. Following CYP1A activity, the DNA content of the cells was measured to normalize the CYP activity. In order to examine the responsiveness to 3-MC, fold changes in activity were calculated as [mean luminescence in the presence of 3-MC/mean luminescence in the absence of 3-MC] for 3 wells/condition in each experiment to determine an average value for five independent experiments. In two experiments, total RNA was isolated to assess the gene expression levels of CYP1A1 and CTP1A2.

Cc1ccc2cc3c(ccc4ccccc43)c3c2c1CC3 [3-MC, 3-methylcholanthrene]
CYP1A1 and CYP1A2 gene expressions in response to stimulation: efficiently induced | CYP1A activity in response to stimulation: efficiently induced
